Converted amounts (≈) assume the structure as drawn.
Experiments:
Type in all cases: cell-based
[1] = tested on: Staphylococcus aureus ATCC29213; test: MIC, microbroth dilution (NCCLS); settings: rifS strain, Cation-Adjusted Mueller-Hinton Broth, 37° C., read-out: Antimicrobial activity (MIC)
[2] = tested on: Staphylococcus aureus ATCC29213 rpoB^D417Y; test: microbe, parasite or virus in culture; settings: ATCC29213, read-out: Antimicrobial activity (MIC)
Outline: (§1)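 Tested organisms were S. aureus ATCC 29213 rpoB mutants (D417Y, H418Y; rifampin-resistant) and double gyrase/topoisomerase IV mutant EN1252a (quinolone-resistant). Growth in cation-adjusted Mueller-Hinton broth at 37 °C; MIC by microbroth dilution per NCCLS guidelines.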

[3] = tested on: Staphylococcus aureus ATCC29213 rpoB^H418Y; test: microbe, parasite or virus in culture; settings: ATCC29213, read-out: Antimicrobial activity (MIC)
Outline: as §1

[4] = tested on: Staphylococcus aureus EN1252a gyrA^S84L grlA^S80F; test: microbe, parasite or virus in culture; settings: read-out: Antimicrobial activity (MIC)
Outline: as §1

[5] = tested on: Staphylococcus epidermidis ATCC12228; test: MIC, microbroth dilution (NCCLS); settings: rifS strain, Cation-Adjusted Mueller-Hinton Broth, 37° C., read-out: Antimicrobial activity (MIC)
[6] = tested on: Streptococcus pneumoniae ATCC6303; test: MIC, microbroth dilution (NCCLS); settings: rifS strain, THY Broth with 1 mg/mL catalase, 5% CO2, 37° C., read-out: Antimicrobial activity (MIC)
[7] = tested on: Streptococcus pyogenes ATCC19615; test: MIC, microbroth dilution (NCCLS); settings: rifS strain, THY Broth, 37° C., read-out: Antimicrobial activity (MIC)
[8] = tested on: Enterococcus faecalis ATCC29212; test: MIC, microbroth dilution (NCCLS); settings: rifS strain, BHI Broth, 37° C., read-out: Antimicrobial activity (MIC)
[9] = tested on: Haemophilus influenzae ATCC10211; test: MIC, microbroth dilution (NCCLS); settings: rifS strain, BHI Broth with NAD and hematin, 37° C., read-out: Antimicrobial activity (MIC)
[10] = tested on: Escherichia coli ATCC25922; test: MIC, microbroth dilution (NCCLS); settings: rifS strain, Cation-Adjusted Mueller-Hinton Broth, 37° C., read-out: Antimicrobial activity (MIC)
[11] = tested on: Mycobacterium smegmatis ATCC700084; test: MIC, microbroth dilution (NCCLS); settings: Mycolicibacterium smegmatis, rifS strain, Middlebrook Broth plus ADC Enrichment, 37° C., read-out: Antimicrobial activity (MIC)

SMILES | MIC [1] [µg/mL] | MIC [2] [µg/mL] | MIC [3] [µg/mL] | MIC [4] [µg/mL] | MIC [5] [µg/mL] | MIC [6] [µg/mL] | MIC [7] [µg/mL] | MIC [8] [µg/mL] | MIC [9] [µg/mL] | MIC [10] [µg/mL] | MIC [11] [µg/mL]
COc1c(N2CCN(C(=O)C3CN(C4=C5NC(=O)/C(C)=C\C=C\[C@H](C)[C@H](O)[C@@H](C)[C@@H](O)[C@@H](C)[C@H](OC(C)=O)[C@H](C)[C@@H](OC)/C=C/O[C@@]6(C)Oc7c(C)c(O)c(c(c7C6=O)C4=O)C5=O)C3)CC2)c(F)cc2c(=O)c(C(=O)O)cn(C3CC3)c12 [Example 45, 3-{3-[4-(3-Carboxy-1-cyclopropyl-6-fluoro-8-methoxy-4-oxo-1,4-dihydroquinolin-7-yl)-piperazin-1-yl-carbonyl]-azetidin-1-yl}rifamycin S] | 0.004 to 0.5 (≈ 0.00351 to 0.439 µM) | 0.06 to 32 (≈ 0.0527 to 28.1 µM) | 0.06 to 16 (≈ 0.0527 to 14.1 µM) | 0.004 to 0.5 (≈ 0.00351 to 0.439 µM) | 0.008 to 0.063 (≈ 0.00703 to 0.0554 µM) | 0.008 to 0.125 (≈ 0.00703 to 0.11 µM) | 0.008 to 0.063 (≈ 0.00703 to 0.0554 µM) | 2 to 32 (≈ 1.76 to 28.1 µM) | 0.125 to 2 (≈ 0.11 to 1.76 µM) | 0.125 to 8 (≈ 0.11 to 7.03 µM) | 0.5 to 64
CO[C@H]1/C=C/O[C@@]2(C)Oc3c(C)c(O)c4c(c3C2=O)C(=O)C(N2CCC(N(C)C3(C5CCN(c6nc7c(cc6F)c(=O)c(C(=O)O)cn7-c6ccc(F)cc6F)C5)CC3)CC2)=C(NC(=O)/C(C)=C\C=C\[C@H](C)[C@H](O)[C@@H](C)[C@@H](O)[C@@H](C)[C@H](OC(C)=O)[C@@H]1C)C4=O (mixture of isomers) [Example 58] | 0.004 to 0.5 (≈ 0.00324 to 0.405 µM) | 0.06 to 32 (≈ 0.0486 to 25.9 µM) | 0.06 to 16 (≈ 0.0486 to 13 µM) | 0.004 to 0.5 (≈ 0.00324 to 0.405 µM) | 0.008 to 0.063 (≈ 0.00648 to 0.051 µM) | 0.008 to 0.125 (≈ 0.00648 to 0.101 µM) | 0.008 to 0.063 (≈ 0.00648 to 0.051 µM) | 2 to 32 (≈ 1.62 to 25.9 µM) | 0.125 to 2 (≈ 0.101 to 1.62 µM) | 0.125 to 8 (≈ 0.101 to 6.48 µM) | 0.5 to 64
CO[C@H]1/C=C/O[C@@]2(C)Oc3c(C)c(O)c4c(c3C2=O)C(=O)C(NCC2CN(c3cc5c(cc3F)c(=O)c(C(=O)O)cn5C3CC3)C2)=C(NC(=O)/C(C)=C\C=C\[C@H](C)[C@H](O)[C@@H](C)[C@@H](O)[C@@H](C)[C@H](OC(C)=O)[C@@H]1C)C4=O [Example 25, 3-[1-(3-Carboxy-1-cyclopropyl-6-fluoro-4-oxo-1,4-dihydroquinolin-7-yl)azetidin-3-methylamino)rifamycin S] | 0.004 to 0.5 (≈ 0.0039 to 0.488 µM) | 0.06 to 32 (≈ 0.0585 to 31.2 µM) | 0.06 to 16 (≈ 0.0585 to 15.6 µM) | 0.004 to 0.5 (≈ 0.0039 to 0.488 µM) | 0.008 to 0.063 (≈ 0.0078 to 0.0615 µM) | 0.008 to 0.125 (≈ 0.0078 to 0.122 µM) | 0.008 to 0.063 (≈ 0.0078 to 0.0615 µM) | 2 to 32 (≈ 1.95 to 31.2 µM) | 0.125 to 2 (≈ 0.122 to 1.95 µM) | 0.125 to 8 (≈ 0.122 to 7.8 µM) | 0.5 to 64
CO[C@H]1/C=C/O[C@@]2(C)Oc3c(C)c(O)c4c(c3C2=O)C(=O)C(N2CCC(CCCC3CCN(c5nc6c(cc5F)c(=O)c(C(=O)O)cn6-c5ccc(F)cc5F)CC3)CC2)=C(NC(=O)/C(C)=C\C=C\[C@H](C)[C@H](O)[C@@H](C)[C@@H](O)[C@@H](C)[C@H](OC(C)=O)[C@@H]1C)C4=O [Example 6, 3-[4-[3-[1-[3-Carboxy-1-(2,4-difluorophenyl)-6-fluoro-4-oxo-1,4-dihydronaphthyridin-7-yl]piperidin-4-yl]propyl]piperidin-1-yl]rifamycin S] | 0.004 to 0.5 (≈ 0.00327 to 0.409 µM) | 0.06 to 32 (≈ 0.0491 to 26.2 µM) | 0.06 to 16 (≈ 0.0491 to 13.1 µM) | 0.004 to 0.5 (≈ 0.00327 to 0.409 µM) | 0.008 to 0.063 (≈ 0.00654 to 0.0515 µM) | 0.008 to 0.125 (≈ 0.00654 to 0.102 µM) | 0.008 to 0.063 (≈ 0.00654 to 0.0515 µM) | 2 to 32 (≈ 1.64 to 26.2 µM) | 0.125 to 2 (≈ 0.102 to 1.64 µM) | 0.125 to 8 (≈ 0.102 to 6.54 µM) | 0.5 to 64
CO[C@H]1/C=C/O[C@@]2(C)Oc3c(C)c(O)c4c(c3C2=O)C(=O)C(N2CCN(c3nc5c(cc3F)c(=O)c(C(=O)O)cn5-c3ccc(F)cc3F)CC2)=C(NC(=O)/C(C)=C\C=C\[C@H](C)[C@H](O)[C@@H](C)[C@@H](O)[C@@H](C)[C@H](OC(C)=O)[C@@H]1C)C4=O [Example 5, 3-[4-(3-Carboxy-1-(2,4-difluorophenyl)-6-fluoro-4-oxo-1,4-dihydronaphthyridin-7-yl)piperazin-1-yl]rifamycin S] | 0.004 to 0.5 (≈ 0.00364 to 0.455 µM) | 0.06 to 32 (≈ 0.0546 to 29.1 µM) | 0.06 to 16 (≈ 0.0546 to 14.6 µM) | 0.004 to 0.5 (≈ 0.00364 to 0.455 µM) | 0.008 to 0.063 (≈ 0.00729 to 0.0574 µM) | 0.008 to 0.125 (≈ 0.00729 to 0.114 µM) | 0.008 to 0.063 (≈ 0.00729 to 0.0574 µM) | 2 to 32 (≈ 1.82 to 29.1 µM) | 0.125 to 2 (≈ 0.114 to 1.82 µM) | 0.125 to 8 (≈ 0.114 to 7.29 µM) | 0.5 to 64
CO[C@H]1/C=C/O[C@@]2(C)Oc3c(C)c(O)c4c(c3C2=O)C(=O)C(N2CCN(c3nc5c(cc3F)c(=O)c(C(=O)O)cn5C3CC3)CC2)=C(NC(=O)/C(C)=C\C=C\[C@H](C)[C@H](O)[C@@H](C)[C@@H](O)[C@@H](C)[C@H](OC(C)=O)[C@@H]1C)C4=O [Example 55, 3-[1-(3-Carboxy-1-cyclopropyl-6-fluoro-4-oxo-1,4-dihydro-[1,8]naphthyridine-7-yl)-piperazin-4-yl]-rifamycin S] | 0.004 to 0.5 (≈ 0.0039 to 0.487 µM) | 0.06 to 32 (≈ 0.0585 to 31.2 µM) | 0.06 to 16 (≈ 0.0585 to 15.6 µM) | 0.004 to 0.5 (≈ 0.0039 to 0.487 µM) | 0.008 to 0.063 (≈ 0.0078 to 0.0614 µM) | 0.008 to 0.125 (≈ 0.0078 to 0.122 µM) | 0.008 to 0.063 (≈ 0.0078 to 0.0614 µM) | 2 to 32 (≈ 1.95 to 31.2 µM) | 0.125 to 2 (≈ 0.122 to 1.95 µM) | 0.125 to 8 (≈ 0.122 to 7.8 µM) | 0.5 to 64
CO[C@H]1/C=C/O[C@@]2(C)Oc3c(C)c(O)c4c(c3C2=O)C(=O)C(N[C@H]2CCN(c3cc5c(cc3F)c(=O)c(C(=O)O)cn5C3CC3)C2)=C(NC(=O)/C(C)=C\C=C\[C@H](C)[C@H](O)[C@@H](C)[C@@H](O)[C@@H](C)[C@H](OC(C)=O)[C@@H]1C)C4=O [Example 9, (S)-3-[1-(3-Carboxy-1-cyclopropyl-6-fluoro-4-oxo-1,4-dihydroquinolin-7-yl)-pyrrolidin-3-ylamino]rifamycin S] | 0.004 to 0.5 (≈ 0.0039 to 0.488 µM) | 0.06 to 32 (≈ 0.0585 to 31.2 µM) | 0.06 to 16 (≈ 0.0585 to 15.6 µM) | 0.004 to 0.5 (≈ 0.0039 to 0.488 µM) | 0.008 to 0.063 (≈ 0.0078 to 0.0615 µM) | 0.008 to 0.125 (≈ 0.0078 to 0.122 µM) | 0.008 to 0.063 (≈ 0.0078 to 0.0615 µM) | 2 to 32 (≈ 1.95 to 31.2 µM) | 0.125 to 2 (≈ 0.122 to 1.95 µM) | 0.125 to 8 (≈ 0.122 to 7.8 µM) | 0.5 to 64
COc1c(N2CCC(N(C)C3=C4NC(=O)/C(C)=C\C=C\[C@H](C)[C@H](O)[C@@H](C)[C@@H](O)[C@@H](C)[C@H](OC(C)=O)[C@H](C)[C@@H](OC)/C=C/O[C@@]5(C)Oc6c(C)c(O)c(c(c6C5=O)C3=O)C4=O)C2)c(F)cc2c(=O)c(C(=O)O)cn(C3CC3)c12 (mixture of isomers) [Example 28] | 0.004 to 0.5 (≈ 0.00374 to 0.468 µM) | 0.06 to 32 (≈ 0.0561 to 29.9 µM) | 0.06 to 16 (≈ 0.0561 to 15 µM) | 0.004 to 0.5 (≈ 0.00374 to 0.468 µM) | 0.008 to 0.063 (≈ 0.00748 to 0.0589 µM) | 0.008 to 0.125 (≈ 0.00748 to 0.117 µM) | 0.008 to 0.063 (≈ 0.00748 to 0.0589 µM) | 2 to 32 (≈ 1.87 to 29.9 µM) | 0.125 to 2 (≈ 0.117 to 1.87 µM) | 0.125 to 8 (≈ 0.117 to 7.48 µM) | 0.5 to 64
